Source: patent US11298366B2, “Ibandronate conjugates of nucleoside antimetabolites” (MBC Pharma, Inc., priority 2017, dated 2022)

Experiments:
[1] = system: 22 RV1-Luc+ prostate cancer cells; assay: Incidence of distal metastases in a rodent model of prostate cancer induced bone disease (intratibial 22 RV1-Luc+ cells); format: in vivo, male SCID mice; settings: day 34 and day 41; for percent of mice with distal metastases (FIG. 3): 2 mg/kg gemcitabine-ibandronate conjugate or molar equivalent, intraperitoneal QDx5 from day 7, versus saline
Procedure: Mice were treated with saline, or equimolar doses of ibandronate (Iband), gemcitabine (Gem), gemcitabine-etidronate conjugate (Gem-Eti), or with the gemcitabine-ibandronate conjugate 5 (Gem-Ibad).
As above in example 5, six-week old male SCID mice were injected with 10 uL of 10^6 22 RV1-Luc+ prostate cancer cells into the tibia. Luminescence on day 6 confirmed implantation and mice were randomized into groups of 10-13 and began dosing on day 7. Mice received intraperitoneal injections QDx5 (5 days/week) of saline or 2 mg/kg gemcitibine-ibandronate conjugate or the molar equivalent of gemcitabine-etidronate conjugate, free ibandronate, or free gemcitibine until the end of week 6 and were imaged every 7 days. A Xenogen imaging station was used to visualize tumor cells and metastases distal to the tibial site of implantation.

[2] = system: MDA-MB-231-luc-D3H2LN cells; assay: Survival in a rodent model of breast cancer (intracardiac injection of MDA-MB-231-luc-D3H2LN cells); format: in vivo, Female Harlan nude mice (Hsd:Athymic Nude-Foxn1nu); settings: for effect on survival (Kaplan-Meier, FIG. 1): intraperitoneal QDx5 from day 22 after implantation, 5 mg/kg gemcitabine-ibandronate conjugate, 6 mg/mg gemcitabine-etidronate conjugate, equimolar free etidronate, ibandronate, gemcitabine, groups of 10
Procedure: FIG. 1 provides Kaplan-Meier survival curves: a murine model of breast cancer of mice treated with saline gemcitabine-ibandronate conjugate (GEM-IB) or gemcitabine-etidronate conjugate (GEM-ET).
Female Harlan nude mice (Hsd:Athymic Nude-Foxn1nu) of 8 weeks age were administered a 100 uL intracardiac injection of MDA-MB-231-luc-D3H2LN cells (Caliper/Xenogen) at106 cells/mL in Dulbecco's Phosphate Buffered Saline. Twenty-two days after implantation the animals were randomized into groups of 10. Each group received one of the following agents 5 days per week (QDx5) as a 100 uL intraperitoneal injection to achieve a dosing of: saline, 5 mg/kg gemcitabine-ibandronate conjugate, 6 mg/mg gemcitabine-etidronate conjugate, equimolar free etidronate, equimolar free ibandronate, equimolar free gemcitabine.

[3] = system: 22 RV1-Luc+ prostate cancer cells; assay: Survival and tumor imaging in a rodent model of prostate cancer induced bone disease (intratibial 22 RV1-Luc+ cells); format: in vivo, male SCID mice
Procedure: Six-week old male SCID mice were injected with 10 uL of 10^6 22 RV1-Luc+ prostate cancer cells into the tibia. Luminescence on day 6 confirmed implantation and mice were randomized into groups of 10 and began dosing on day 7. Mice received intraperitoneal injections 5 days/week of saline or 2 mg/kg gemcitibine-ibandronate conjugate (compound 5, example 1) until the end of week 6 and were imaged every 7 days. A Xenogen imaging station was used to visualize tumor cells; the heat map from light blue to red indicates increasing tumor cells numbers.

Compound | percent of mice with distal metastases (FIG. 3) [1] | benefit on distal metastases compared with the other treatments ([1]; 2 mg/kg intraperitoneal QDx5) | survival benefit compared with the other treatments ([2]; intraperitoneal QDx5, 5 mg/kg gemcitabine-ibandronate conjugate versus 6 mg/mg gemcitabine-etidronate conjugate) | effect on survival (Kaplan-Meier, FIG. 1) [2] | mice alive at the end of 42 days (FIG. 2) ([3]; 2 mg/kg intraperitoneal 5 days/week from day 7 until end of week 6, groups of 10, saline control 6 of 10 alive) | cancer cells present by Xenogen image analysis ([3]; 2 mg/kg intraperitoneal 5 days/week, from day 28 and later, versus saline)
CCCCCN(C)CCC(O)(P(=O)(O)O)P(=O)(O)OP(=O)(O)OC[C@H]1O[C@@H](n2ccc(N)nc2=O)C(F)(F)C1O (some centres unmarked) [conjugate 5, Gemcitabine-Ibandronate Conjugate] | reduced the percent of mice with distal metastases | superior benefit | greatest benefit | improved survival | all mice treated with the compound 5 (example 1) were alive | less cancer cells are present
CC(O)(P(=O)(O)O)P(=O)(O)O [etidronate] | – | – | – | did not have a significant effect on survival | – | –
Nc1ccn([C@@H]2O[C@H](CO)[C@@H](O)C2(F)F)c(=O)n1 [gemcitabine, Gemcitabine] | – | – | – | did not have a significant effect on survival | – | –
CCCCCN(C)CCC(O)(P(=O)(O)O)P(=O)(O)O [ibandronate] | – | – | – | did not have a significant effect on survival | – | –
gemcitabine-etidronate conjugate [reference compound] | reduced the percent of mice with distal metastases | – | – | improved survival | – | –
